Measured values: patent publication US6949521B2, “Therapeutic azide compounds” (priority 1995, dated 2005)
Entries after “also recorded” stand apart in the source; their conditions may differ. Values belong to the compound of their own block, whether it stands above or below them.

Tests used:
[1] = in vivo; settings: female, NIH-Swiss, mouse, in vivo; for half-life: t½; for AUC: AUC0-τ
Excerpt: Animal studies. […] Animal studies were approved by the University of Georgia Animal Care and Use Committee and conducted in accordance with guidelines established by the Animal Welfare Act and the National Institutes of Health Guide for the Care and Use of Laboratory Animals. […] Animals were acclimatized to this environment for one week prior to the experiments.
At selected time intervals, mice (three animals per each time point) were anesthetized with diethyl ether and sacrificed by exsanguination via left ventricular heart puncture. Serum was harvested from blood collected. The brain was excised, rinsed with normal saline, blotted dry and weighed.
Analytical Methodology. […] The brain or liver tissue were homogenized in a 1:1 (g:mL) ratio with ice cold isotonic 0.05 M phosphate buffer, pH 7.4. […] Acetonitrile (600 μL) containing 0.1% acetic acid was added while vortexing to precipitate proteins. The tubes were centrifuged at 3,000 rpm for five minutes and the supernatant was transferred to a clean tube. Supernatant was evaporated to dryness under a stream of nitrogen gas at room temperature. The residual film was reconstituted in 110 μL of mobile phase and 50 μL was injected onto the HPLC.
Chromatographic separations were performed using a Hypersil ODS column 150×4.5 mm, 5 μm particle size (Alltech Associates, Deerfield, Ill.) preceded by a guard column packed with 30-40 μm pellicular Perisorb RP-18. Mobile phase flow rate was 2 mL/min. For the analysis of FAAddP and 2′-F-ara-ddA, the mobile phase consisted of 7% (v/v) acetonitrile in 80 mM sodium acetate, pH 5.0. […] Eluants were monitored at a UV wavelength of 260 nm.
Nucleoside standards ranging from 0.04 μg/mL to 100 μg/mL, prepared in blank PBS, serum, brain homogenate and liver homogenate were treated the same as unknown samples. Samples with nucleoside concentrations greater than 100 μg/mL were diluted with the appropriate blank matrix.
Data analysis in vivo studies. Nucleoside concentration as a function of time data were analyzed by a non-compartmental technique. […] Relative brain exposure (re) was calculated from AUCbrain/AUCserum.

[2] = system: HIV-1; settings: relative to parent compounds ddA, ddI; cited from earlier work
[3] = mice; after oral and intravenous prodrug 2′-F-ara-ddP administration; cited from earlier work
[4] = Stability of 6-AAP at pH 2, 7 and 11 by UV spectroscopy; type: physicochemical; settings: 37° C.
Description: (§1) The stability of 6-AAP at pH 2, 7 and 11 and towards adenosine deaminase hydrolysis was studied by UV spectroscopy.
Stability studies of 6AAP. A kinetic study at varying pHs (pH 2, 7 and 11 at 37.1° C.) was performed on a UV spectrophotometer to investigate the stability of 6-AAP. […] At pH 2, the compound was stable.

[5] = in vivo; settings: female, NIH Swiss, mouse; for Kp: brain
Description: (§2) Analysis. […] All the solvents were of HPLC grade. Chromatography was performed on an Altech Hypersil ODS C18 (5 μm particle size, 4.5×150 mm, Altech Associates, Deerfield, Ill.).
(§3) In vivo pharmacokinetics: Female NIH Swiss mice (Harland Sprague-Dawley, Indianapolis, Ind.) weighing 24-28 g were used for the pharmacokinetic experiments.
(§4) At least three animals each were sacrificed at 0.08, 0.025, 0.5, 0.75, 1.0, 2.0, 3.0, 4.0, 5.0 and 6.0 hours after drug administration. Blood (serum) from the heart and whole-brain samples were collected. Serum samples were treated immediately and brain samples were frozen at −20° C. until analysis. To determine the nucleoside concentrations in the serum, a know amount of serum sample, 50 μL of the internal standard (AzdU, 5 μg/mL) and 1.0 mL of acetonitrile as a protein precipitant were added to polypropylene microcentrifuge tubes (1.7 mL). Tubes were mixed and centrifuged at 9,000 rpm for 10 minutes.
(§5) After homogenization, 1.8 mL of acetonitrile was added to tissue homogenates, samples were mixed and centrifuged at 9,000 rpm for 10 minutes. The resulting supernatant from the serum or the brain was transferred to a clean tube and dried under a stream of nitrogen gas at 22° C. The residue was reconstituted in 220 μL of mobile phase D and after centrifugation at 12,000 rpm for 40 min, 100-150 μL was injected for the HPLC analysis. […] After each assay, the column was equilibrated to initial conditions for 7 minutes.
(§6) The area under concentration (AUC) versus time profiles from time zero to the last measured concentration were determined by the linear trapezoidal rule and the AUC from the time of the last measured concentration to infinity was determined by dividing the last determined concentration by the least-squares elimination rate constant (λZ). […] The relative tissue exposure (re) of the compounds was calculated from AUCTissue/AUCserum.

[6] = in vitro; settings: female, NIH Swiss, mouse
Description: (§7) All the solvents were of HPLC grade. Chromatography was performed on an Altech Hypersil ODS C18 (5 μm particle size, 4.5×150 mm, Altech Associates, Deerfield, Ill.).
(§8) In vitro metabolism study. Female NIH Swiss mice (Harland Sprague-Dawley, Indianapolis, Ind.) were sacrificed and serum, liver and brain tissues were collected before each experiment. Serum was collected from several animals. The brain and liver were washed in normal saline at 4° C., wiped and then weighed. […] Samples and blanks of volume 400 μL were collected at 0, 5, 15, and 30 minutes and at 1, 2, 3, 4 and 5 hours.
(§9) To measure the analyte concentrations in serum, liver or brain homogenate, 400 μL of sample was mixed with 50 μL of internal standard (AzdU, 5 μg/mL) and 0.7 mL of acetonitrile. After centrifugation, the supernatant was decanted to another tube and treated with anhydrous Na2SO4, then vortexed for one minute and centrifuged again. The organic layer was separated and evaporated under nitrogen stream at room temperature. The residue was reconstituted in mobile phase A and filtered through MPS-I micropartition system (3KD membranes (Amicon Inc., Beverly, Mass.) by centrifugation for 50 minutes at 2000 rpm to further clean-up the samples. 100 μL of filtrate was injected for analysis.

[7] = In vivo pharmacokinetics of 6-AAP and ara-A in mice (serum and brain)
Description: as §2, §3, §4, §5, §6

[8] = In vitro metabolism study of 6-AAP and ara-A in mouse liver homogenate, serum and brain homogenate
Description: as §7, §8, §9

[9] = target: T1, adenosine deaminase (Bos taurus, UniProt P56658); assay: Adenosine deaminase study of 6-AAP; type: biochemical, calf; settings: phosphate buffer pH 7.4, 25° C., up to three hours
T1 construct: Type II crude powder from calf intestinal mucosa; purchased Sigma chemical Co., St. Louis, Mo; Type II crude powder; host or cells: calf intestinal mucosa
T1 sequence (P56658 1-363): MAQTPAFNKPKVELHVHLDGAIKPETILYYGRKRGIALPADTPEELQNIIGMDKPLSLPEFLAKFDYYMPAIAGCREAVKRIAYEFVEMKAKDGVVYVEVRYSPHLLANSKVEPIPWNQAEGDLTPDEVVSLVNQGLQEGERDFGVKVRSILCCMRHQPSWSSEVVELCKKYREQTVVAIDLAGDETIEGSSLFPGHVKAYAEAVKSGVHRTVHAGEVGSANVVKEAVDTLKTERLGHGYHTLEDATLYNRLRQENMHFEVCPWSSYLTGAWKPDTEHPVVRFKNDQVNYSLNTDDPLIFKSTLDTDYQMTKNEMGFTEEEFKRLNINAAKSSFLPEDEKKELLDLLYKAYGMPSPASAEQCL
Description: as §1
Materials: Melting points were determined on a Mel-Temp II laboratory device and are uncorrected. The ^1H NMR spectra were recorded on a JEOL FX 90 Q FT spectrophotometer, with TMS as the internal standard; chemical shifts are reported in parts per million (δ), and the signals are quoted as s (singlet), d (doublet), t (triplet) or m (multiplet). UV spectra are recorded on a Beckman DU-650 spectrophotometer. TLC was performed on Uniplates (silica gel) purchased from Analtech Co. Elemental analysis was performed by Atlantic Microlab, Inc., Norcross, Ga. Ara-A and Adenosine deaminase (Type II crude powder from calf intestinal mucosa, 1-5 units/mg activity) was purchased from Sigma chemical Co., St. Louis, Mo. All other chemicals are of reagent grade. Methanol and acetonitrile, methyl sulfoxide were purchased from EM Science, Gibbstown, N.J.
Adenosine deaminase studies.

[10] = system: microsomal fraction of the human liver homogenate; assay: Azido reduction assay
Description: Briefly, incubation mixtures contained either 1.5 mg of human liver fraction protein (homogenate or supernatant fractions following centrifugation) or 1.5 mg microsomal protein, 5.0 mM MgCl2, 6.0 mM NADPH and 0.4 mg/mL of 6-AAP in 0.1 M phosphate buffer saline at pH 7.4 (final volume of 0.2 mL). The reaction was initiated by adding NADPH and conducted at 37° C. for 60 minutes under nitrogen. Reactions were terminated by heating at 100° C. for 30 seconds and the proteins were removed by centrifugation at 14,000 g for six minutes. Aliquots (100 μL) were then analyzed for nucleosides by HPLC. Control incubations were performed in the absence of protein.
Inhibition of azido reduction assay: Assays were performed using 1.5 mg microsomal protein as described above following either a 45 second exposure to carbon monoxide or a 5 minute pre-incubation with 1 mM metyrapone prior to the addition of NADPH.

[11] = mouse, in vivo, iv, 100 mg/kg
Description: as §2, §3, §4, §5, §6

[12] = in vivo; cited from earlier work
[13] = after 6-AAP 100 mg/kg iv, brain
[14] = after 6-AAP 100 mg/kg iv, serum
[15] = after 6-AAP 100 mg/kg oral, brain
[16] = after 6-AAP 100 mg/kg oral, serum
[17] = 6-AAP and coformycin incubated in mouse liver homogenate
[18] = 6-AAP incubated in mouse liver homogenate

SMILES: O=c1[nH]cnc2c1ncn2[C@@H]1O[C@H](CO)C[C@@H]1F [2′-F-ara-ddI, 2′-fluoro-2′,3′-dideoxyinosine]
- clearance ([1]; iv): 36.3 mL/min/kg
- Kp ([1]; iv, 20 mg/kg): 0.165
- half-life ([1]; iv, 20 mg/kg): 0.41 h
- t½ ([1]; iv, 55 mg/kg): 0.96 h
- half-life ([1]; iv, 55 mg/kg): 0.68 h
- AUC/Dose ([1]; iv, 112 mg/kg): 0.025 μM · h/μmol/kg
- AUC ([1]; iv, 112 mg/kg): 10.1 µM·h
- half-life ([1]; iv, 112 mg/kg): 0.52 h
- AUC/Dose ([1]; po, 55 mg/kg): 0.046 μM · h/μmol/kg
- AUC ([1]; po, 55 mg/kg): 6.7 µM·h
- half-life ([1]; po, 55 mg/kg): 2.92 h
- potency in protecting CD4+ATH8 cells from cytopathogenic effects of HIV-1 [2]: as potent as the parent compounds
- AUCbrain/AUCserum ratio [3]: approximately 36%

SMILES: [N-]=[N+]=Nc1ncnc2c1ncn2[C@@H]1O[C@H](CO)[C@@H](O)[C@@H]1O [Compound 6-AAP, 9-(β-D-arabinofuranosyl)-6-azidopurine]
- stability at pH 2 ([4]; UV at 287.5 nm, 2.75 hours): did not show any significant change; also recorded: stable
- stability at pH 7 ([4]; UV at 287.5 nm, 2.75 hours): did not show any significant change; also recorded: stable
- stability at pH 11 ([4]; UV spectroscopy): immediately changed its UV absorption maximum; also recorded: shifted from 287.5 nm to 222.5 nm immediately
- Kp ([5]; intravenous, 100 mg/kg): 0.02
- Kp ([5]; iv, 100 mg/kg): 0.02
- Kp ([5]; oral, 100 mg/kg): 0.3
- Kp ([5]; po, 100 mg/kg): 0.33
- AUC ([5]; serum, iv, 20 mg/kg): 85600 ng·h/mL
- AUC ([5]; serum, iv, 100 mg/kg): 201000 ± 17900 ng·h/mL
- AUC ([5]; serum, po, 100 mg/kg): 13800 ± 1400 ng·h/mL
- bioavailability ([5]; serum, po, 100 mg/kg): 6.8%
- half-life at 100 μg/mL ([6]; brain homogenate): 7.29 h
- half-life at 100 μg/mL ([6]; tissue homogenate): 4.9 h
- Maximum concentration in serum, intravenous ([7]; after 6-AAP 100 mg/kg iv): 465 ± 167 µg/mL
- maximum concentration in the brain, intravenous ([7]; after 6-AAP 100 mg/kg iv): 5.92 ± 0.7 µg/g
- time of maximum concentration in the brain, intravenous ([7]; after 6-AAP 100 mg/kg iv): 5 min
- AUC [7, 13]: 4410 ± 370 ng·h/mL
- t1/2 [7, 13]: 0.77 h
- AUC [7, 14]: 201100 ± 17900 ng·h/mL
- t1/2 [7, 14]: 0.55 h
- Maximum concentration in serum, oral ([7]; after 6-AAP 100 mg/kg oral): 7.8 ± 2.51 µg/mL
- maximum concentration in the brain, oral ([7]; after 6-AAP 100 mg/kg oral): 1.87 µg/g
- time of maximum concentration in serum, oral ([7]; after 6-AAP 100 mg/kg oral): 60 min
- time of maximum concentration in the brain, oral ([7]; after 6-AAP 100 mg/kg oral): 30 min
- re (brain) ([7]; after 6-AAP 100 mg/kg oral, AUCTissue/AUCserum): 0.30
- AUC [7, 15]: 4120 ± 370 ng·h/mL
- t1/2 [7, 15]: 1.29 h
- AUC [7, 16]: 13770 ± 1400 ng·h/mL
- t1/2 [7, 16]: 0.58 h
- fold difference in the AUC values after iv dosing of 20 and 100 mg/kg ([7]; serum): 5 fold
- Kel [8, 17]: 0.12 h⁻¹
- T1/2 [8, 17]: 5.98 h
- Kel ([8]; 6-AAP incubated in mouse brain homogenate): 0.01 h⁻¹
- Kel [8, 18]: 0.14 h⁻¹
- T1/2 [8, 18]: 4.66 h
- Kel ([8]; 6-AAP incubated in mouse serum, calculated from 0 to 1 h): 0.25 h⁻¹
- T1/2 ([8]; 6-AAP incubated in mouse serum, calculated from 0 to 1 h (slow initial decline)): 3.73 h
- hydrolysis by adenosine deaminase [9]: not hydrolysed
- azido reduction (metabolites formed) [10]: converted to ara-A

- AUC ([5]; in vivo, iv, 100 mg/kg): 3950 ± 200 ng·h/mL
- concentration at 25 minutes ([5]; in vivo, iv, 100 mg/kg): 330 ± 250 ng/mL
- serum level, initial (declined from) ([11]; female, NIH Swiss): 18500 ± 3500 ng/mL
- presence in the brain [11]: not found
- T1/2 [8, 18]: 1.46 h
- T1/2 ([8]; Ara-A incubated in mouse liver homogenate): 0.04 h
- half-life of ara-A generated from 6-AAP alone, times greater than that of ara-A itself ([8]; mouse liver homogenate): 36 times
SMILES: Nc1ncnc2c1ncn2[C@@H]1O[C@H](CO)[C@@H](O)[C@@H]1O [ara-A, 9-(β-D-arabinofuranosyl)adenine, reference compound]
- half-life of ara-A [12]: four times longer
